According to the NIST ThermoML archive (doi:10.1016/j.jct.2016.03.035):
Where “and” joins values, the source holds several entries; their conditions need not be identical. Equal values may be shown once.

Assay: xn = mol fraction of the nth substance listed
Settings: Gas, Buoyancy - hydrostatic balance with magnetic suspension - two sinkers

C [methane] + CCC
Settings | mass density
248.15 K, 96.6 kPa, x1 = 0.2658 | 1.7468 kg/m3
248.15 K, 120.09 kPa, x1 = 0.5069 | 1.764 kg/m3 and 1.7641 kg/m3 and 1.7642 kg/m3
248.15 K, 141.7 kPa, x1 = 0.2658 | 2.5863 kg/m3 and 2.5861 kg/m3 and 2.5862 kg/m3
248.15 K, 183.4 kPa, x1 = 0.5069 | 2.7166 kg/m3 and 2.7162 kg/m3 and 2.7167 kg/m3
248.15 K, 184.56 kPa, x1 = 0.2658 | 3.3989 kg/m3 and 3.3987 kg/m3
248.15 K, 220.8 kPa, x1 = 0.2658 | 4.0983 kg/m3 and 4.0981 kg/m3 and 4.0981 kg/m3
248.15 K, 244.4 kPa, x1 = 0.5069 | 3.6494 kg/m3 and 3.6497 kg/m3 and 3.6499 kg/m3
248.15 K, 251.13 kPa, x1 = 0.2658 | 4.6927 kg/m3 and 4.6924 kg/m3 and 4.6926 kg/m3
248.15 K, 271.98 kPa, x1 = 0.2658 | 5.1061 kg/m3
248.15 K, 271.99 kPa, x1 = 0.2658 | 5.1059 kg/m3
248.15 K, 275.99 kPa, x1 = 0.2658 | 5.186 kg/m3 and 5.1858 kg/m3 and 5.1858 kg/m3
248.15 K, 303.31 kPa, x1 = 0.5069 | 4.5661 kg/m3 and 4.566 kg/m3 and 4.5662 kg/m3
248.15 K, 360.5 kPa, x1 = 0.5069 | 5.4703 kg/m3 and 5.4702 kg/m3 and 5.4702 kg/m3
248.15 K, 424.87 kPa, x1 = 0.5069 | 6.5058 kg/m3 and 6.5052 kg/m3 and 6.5054 kg/m3
248.16 K, 96.6 kPa, x1 = 0.2658 | 1.7471 kg/m3 and 1.747 kg/m3
248.16 K, 390.03 kPa, x1 = 0.7498 | 4.4827 kg/m3
248.16 K, 390.04 kPa, x1 = 0.7498 | 4.4825 kg/m3 and 4.4826 kg/m3
248.16 K, 500.33 kPa, x1 = 0.7498 | 5.7987 kg/m3 and 5.7985 kg/m3 and 5.7986 kg/m3
248.16 K, 580.7 kPa, x1 = 0.7498 | 6.7716 kg/m3 and 6.7717 kg/m3
248.16 K, 685.07 kPa, x1 = 0.7498 | 8.055 kg/m3 and 8.0552 kg/m3
248.16 K, 786.23 kPa, x1 = 0.7498 | 9.3205 kg/m3
248.16 K, 786.24 kPa, x1 = 0.7498 | 9.3204 kg/m3 and 9.3205 kg/m3
248.16 K, 835.59 kPa, x1 = 0.7498 | 9.9462 kg/m3
248.16 K, 835.6 kPa, x1 = 0.7498 | 9.946 kg/m3 and 9.9461 kg/m3
248.16 K, 859.93 kPa, x1 = 0.7498 | 10.2556 kg/m3
248.16 K, 859.95 kPa, x1 = 0.7498 | 10.2561 kg/m3 and 10.2559 kg/m3
248.16 K, 884.03 kPa, x1 = 0.7498 | 10.5636 kg/m3 and 10.5634 kg/m3 and 10.5637 kg/m3
248.17 K, 276.07 kPa, x1 = 0.7498 | 3.1457 kg/m3
248.17 K, 276.08 kPa, x1 = 0.7498 | 3.1457 kg/m3 and 3.1455 kg/m3
273.14 K, 124.74 kPa, x1 = 0.5069 | 1.6598 kg/m3 and 1.6598 kg/m3
273.14 K, 258.4 kPa, x1 = 0.5069 | 3.4826 kg/m3
273.15 K, 124.75 kPa, x1 = 0.5069 | 1.6598 kg/m3
273.15 K, 167.48 kPa, x1 = 0.2658 | 2.7681 kg/m3 and 2.7679 kg/m3
273.15 K, 167.49 kPa, x1 = 0.2658 | 2.7677 kg/m3
273.15 K, 218.01 kPa, x1 = 0.5069 | 2.9256 kg/m3
273.15 K, 218.04 kPa, x1 = 0.5069 | 2.9262 kg/m3
273.15 K, 218.06 kPa, x1 = 0.5069 | 2.9265 kg/m3
273.15 K, 242.18 kPa, x1 = 0.2658 | 4.0482 kg/m3 and 4.0482 kg/m3
273.15 K, 258.4 kPa, x1 = 0.5069 | 3.4831 kg/m3
273.15 K, 258.41 kPa, x1 = 0.5069 | 3.4831 kg/m3
273.15 K, 262.29 kPa, x1 = 0.5069 | 3.5352 kg/m3
273.15 K, 269.26 kPa, x1 = 0.5069 | 3.6315 kg/m3
273.15 K, 277.28 kPa, x1 = 0.5069 | 3.7427 kg/m3
273.15 K, 309 kPa, x1 = 0.5069 | 4.1836 kg/m3
273.15 K, 316.31 kPa, x1 = 0.5069 | 4.2857 kg/m3
273.15 K, 321.34 kPa, x1 = 0.5069 | 4.3577 kg/m3 and 4.3576 kg/m3
273.15 K, 321.35 kPa, x1 = 0.5069 | 4.3574 kg/m3
273.15 K, 323.08 kPa, x1 = 0.5069 | 4.3804 kg/m3
273.15 K, 340.33 kPa, x1 = 0.5069 | 4.6223 kg/m3
273.15 K, 340.34 kPa, x1 = 0.5069 | 4.6226 kg/m3
273.15 K, 340.36 kPa, x1 = 0.5069 | 4.6229 kg/m3
273.15 K, 344.34 kPa, x1 = 0.2658 | 5.85 kg/m3 and 5.8499 kg/m3 and 5.85 kg/m3
273.15 K, 401.7 kPa, x1 = 0.2658 | 6.8907 kg/m3 and 6.8903 kg/m3
273.15 K, 401.71 kPa, x1 = 0.2658 | 6.8904 kg/m3
273.15 K, 402.73 kPa, x1 = 0.5069 | 5.504 kg/m3
273.15 K, 406.4 kPa, x1 = 0.2658 | 6.9763 kg/m3
273.15 K, 406.45 kPa, x1 = 0.2658 | 6.9765 kg/m3 and 6.9764 kg/m3
273.15 K, 409.05 kPa, x1 = 0.5069 | 5.5939 kg/m3
273.15 K, 415.33 kPa, x1 = 0.5069 | 5.6832 kg/m3
273.15 K, 430.79 kPa, x1 = 0.2658 | 7.4249 kg/m3
273.15 K, 430.8 kPa, x1 = 0.2658 | 7.4251 kg/m3
273.15 K, 441.05 kPa, x1 = 0.5069 | 6.0518 kg/m3
